Experimental data reported in publication PMC10507961, “Development of an amoxicillin-radix scutellaria extract formulation and evaluation of its pharmacokinetics in pigs” (BMC Veterinary Research, 2023).
≈ marks a conversion by molar mass, not a printed value.

Experiments:
[1] = test system: Escherichia coli; assay: Antibacterial susceptibility test (MIC), E. coli; format: cell-based; conditions: 15 strains, MIC range, read-out: AMO MIC
Procedure: (§1) Fifteen strains of E. coli, 16 strains of […], and 16 strains of […] were provided by the Department of Pharmacology and Toxicology of China Agricultural University. The minimum inhibitory concentration (MIC) of AMO and RSE was tested in the bacteria mentioned above; this method was previously reported by Jiarong Cao, et al.. Amoxicillin or baicalin was added to a sterile 96-well plate with multiple dilutions from low to high concentrations from the first well to the tenth well, with 100 μL per well. 100 μL of bacterial solution was added to a concentration of 1 × 10^6 CFU/mL. 200 μL of the bacterial solution was added to the 11th well as positive control, and 200 μL of broth was added to the 12th well as a negative control. The MIC test of quality control bacteria was carried out at the same time in each test. The 96-well plate was placed in a 37 ℃ incubator for 18 to 24 h, and the results were observed and recorded. The experiment was repeated three times.

[2] = test system: Salmonella; assay: Antibacterial susceptibility test (MIC), Salmonella; format: cell-based; conditions: read-out: AMO MIC
Procedure: The minimum inhibitory concentration (MIC) of AMO and RSE was tested in the bacteria mentioned above; this method was previously reported by Jiarong Cao, et al..
Amoxicillin or baicalin was added to a sterile 96-well plate with multiple dilutions from low to high concentrations from the first well to the tenth well, with 100 μL per well. 100 μL of bacterial solution was added to a concentration of 1 × 10^6 CFU/mL. 200 μL of the bacterial solution was added to the 11th well as positive control, and 200 μL of broth was added to the 12th well as a negative control. The MIC test of quality control bacteria was carried out at the same time in each test. The 96-well plate was placed in a 37 ℃ incubator for 18 to 24 h, and the results were observed and recorded. The experiment was repeated three times.

[3] = Second pharmacokinetic study in pigs (three doses of AMO-RSE powder); format: in vivo; conditions: p.o. AMO-RSE powder, tested dose range (AMO 10–30 mg/kg, BCL 5–15 mg/kg)
Source text: Twelve healthy Landrace × Large White hybrid pigs, half male and half female, with an average body weight of 15 ± 3.2 kg (range 11–18 kg), were randomly divided into two groups (three male and three female pigs in each group) for pharmacokinetics experiments and were purchased from JuCong agriculture, Nanning, Guangxi. Commercial feed and water free of antibiotics and target drugs were freely available to the pigs housed individually in 12 pig pens. After the experiment, the pigs were released.
Pig jugular vein blood was collected in an anticoagulant tube, and centrifuged at 3000 rpm for 10 min, and the separated plasma was stored at -20 ℃. The plasma sample was placed at room temperature for natural thawing, and it was mixed evenly with a vortex, 1 mL of the plasma sample was accurately measure and placed it in a 10 mL centrifuge tube with a cover. […]
Using HPLC to measured the content of AMO. […] The limits of detection and quantification of amoxicillin in the plasma were 0.03 and 0.1 µg/ml, respectively.
The content of BCL were measured using HPLC. […] The limits of detection and quantification of […] in the plasma were 0.03 and 0.1 µg/ml, respectively. […]
The concentrations of AMO and BCL in plasma at each time point are expressed as the arithmetic mean ± SD. The pharmacokinetic parameters were calculated by using noncompartmental analysis based on statistical moment theory. […]

[4] = test system: Streptococcus; assay: Antibacterial susceptibility test (MIC), Streptococcus; format: cell-based; conditions: 16 strains, MIC range
Procedure: as §1

[5] = Moisture absorption percentage test; format: physicochemical
Procedure: Sample dried to a constant weight (1 g) was placed in a 5 mL flat weighing bottle, shaken gently to evenly distribute the sample, weighed accurately, put it in a dryer containing supersaturated sodium chloride solution (the weighing bottle is opened), and weighed after 24 h (n = 3). The moisture absorption percentage was calculated according to the following formula: Moistureabsorptionpercentage(%)=weightaftermoistureabsorption-weightbeforemoistureabsorption/weightbeforemoistureabsorption×100%

[6] = Angle of repose test; format: physicochemical; conditions: fixed funnel method
Procedure: The fixed funnel method was used to measure the angle of repose. A funnel was fixed at a height of 3 cm above coordinate paper (the paper was placed on a horizontal table), and materials were added through the funnel until the top of the accumulated cone came into contact with the bottom of the funnel. The cone diameter was measured, and the angle of repose was calculated with the ratio of the distance between the funnel and paper to the cone radius as the tangent.

| SMILES | MIC [1] [µg/mL] | MIC [2] [µg/mL] | dose linearity of pharmacokinetics [3] | AMO MIC [4] [µg/mL] | MIC ([4]; read-out: AMO MIC) [µg/mL] | moisture absorption percentage, rank among five excipients [5] | angle of repose [6] [°] |
| --- | --- | --- | --- | --- | --- | --- | --- |
| CC1(C)S[C@@H]2[C@H](NC(=O)[C@H](N)c3ccc(O)cc3)C(=O)N2[C@H]1C(=O)O [AMO, Amoxicillin] | 1 to 8 (≈ 2.74 to 21.9 µM) | 0.25 to 32 (≈ 0.684 to 87.6 µM) | linear pharmacokinetic properties | 1 to 128 | 0.5 to 64 (≈ 1.37 to 175 µM) |  |  |
| O=C(O)[C@H]1O[C@@H](Oc2cc3oc(-c4ccccc4)cc(=O)c3c(O)c2O)[C@H](O)[C@@H](O)[C@@H]1O [BCL, baicalin] |  |  | linear pharmacokinetic properties |  |  |  |  |
| OC[C@H]1OC(O)[C@H](O)[C@@H](O)[C@@H]1O (some centres unmarked) [glucose] |  |  |  |  |  | lowest | 41.44 |
